The record followed here is patent US20240287489A1, “CHITINOLYTIC ENZYME-BASED PLANT PROTECTION AGENTS” (GLOBACHEM NV, priority 2021, published 2024).

What all share (test): Effect of metallic ions and chemical compounds on chitinase activity
Common to all, as to assay type: biochemical, P. orarium
Holding throughout (settings): relative to standard MAT buffer control (100%); ions and EDTA 1 mM, Tween 20 0.5% v/v, SDS 0.5% w/v; 2 μM enzyme

Experiment [1] has as its system recombinant chitinase C1. The procedure: (§1) The addition of different co-factors and chemicals was assessed to determine whether they stimulate or inhibit enzymatic activity and the effect was evaluated relative to the control in standard MAT buffer (33 mM 2-(N-morpholino) ethanesulfonic acid (MES), 33 mM sodium acetate, 33 mM Tris(hydroxymethyl) aminomethane (TRIS); pH 8.0). The selection of tested compounds at the respective concentrations was based on findings for different chitinases so far [Zarei et al., J. Microbiol., 2011. 42: p. 1017-1029.]. […] All enzymes were inhibited the strongest by Zn2+ and Cu2+ and SDS (0.5% w/v) resulting in a relative loss of activity of up to 99%. […] Inhibitory effects of Ni2+ and imidazole on enzymatic activity also underline the requirement for dialysis of the elution fractions after purification in order to remove residual Ni2+ and imidazole from the elution buffer.
(§2) Enzyme samples were incubated at different temperature (10-60° C., 10° C. increment) and pH (4-11, increment 1) using different buffer systems (Acetate, Tris-HCl, MES, total molar concentration 100 mM), as well as NaCl content (0, 1. 2.5, 5, 10 and 20% w/v) to determine optimum reaction conditions. All experiments were carried out at 1.0 ml scale using 2 μM of the respective enzymes and a 5% (wv) suspension of chitin powder extracted from shrimp shells (˜400.000 g/mol; Carl, Roth) in 100 mM MAT buffer. For the determination of the substrate specificity, chitin powder (5% w/v), glycol chitin (10% v/v), colloidal chitin (5% w/v), chitosan [DA 15-25%, medium molecular weight, Sigma-Aldrich] (5% w/v) and microcrystalline cellulose powder (Sigma Aldrich) (5% w/v) were investigated, respectively. The effect of several potential co-factors on activity was elucidated at a concentration of 1 mM. Additionally, the effect of detergents [SDS 0.5% (w/v), Tween-20 and Triton X-100 both at 0.5% (v/v)] and chemicals (Imidazole 100 mM, EDTA 1 mM) on enzymatic activity was assessed. Samples were incubated in a thermomixer for 16 h at 900 rpm. After incubation, samples were analyzed using the enzyme assay. Thermostability was assessed after incubation of recombinant chitinases at 60° C. for different durations followed by the quantification of residual enzyme activity under standard assay conditions.

The subject of experiment [2] is recombinant chitinase C5. The procedure:
as §1, §2

Experiment [3] relates to recombinant chitinase C2. On the procedure:
as §1, §2

Experiment [4] deals with recombinant chitinase C3. On the procedure:
as §1, §2

Experiment [5] deals with recombinant chitinase C4. The procedure:
as §1, §2

As for `[Ca+2]` [Ca^2+], in experiment [1], the “[%] Residual activity C1” value was 92.7 ± 2.1%. Moreover, the “[%] Residual activity C5” value in experiment [2] is recorded as 21.3 ± 0.1%. Moreover, the “[%] Residual activity C2” value in experiment [3] came to 35.6 ± 1.7%. The “[%] Residual activity C3” value in experiment [4] was found to be 94.7 ± 2.0%. For the same molecule, in experiment [5], the “[%] Residual activity C4” value is reported as 3.8 ± 0.4%.

For the molecule `[Cu+2]` [Cu^2+], in experiment [1], the “[%] Residual activity C1” value stood at 11.1 ± 3.7%. In addition, the “[%] Residual activity C5” value in experiment [2] is reported as 3.9 ± 2.9%. Moreover, the “[%] Residual activity C2” value in experiment [3] is 12.3 ± 0.9%. The “[%] Residual activity C3” value in experiment [4] was determined as 16.9 ± 0.2%. Moreover, in experiment [5], the “[%] Residual activity C4” value was found to be 14.8 ± 3.4%.

Take `O=C(O)CN(CCN(CC(=O)O)CC(=O)O)CC(=O)O` [EDTA]: in experiment [1], the “[%] Residual activity C1” value is 68.9 ± 0.7%. Besides, the “[%] Residual activity C5” value in experiment [2] came to 28.0 ± 0.9%. The “[%] Residual activity C2” value in experiment [3] worked out at 20.4 ± 1.6%. Besides, in experiment [4], the “[%] Residual activity C3” value is given as 80.8 ± 4.8%. The “[%] Residual activity C4” value in experiment [5] came to 73.9 ± 4.1%.

For the molecule `[K+]` [K^2+], in experiment [1], the “[%] Residual activity C1” value amounted to 100.1 ± 2.8%. Moreover, the “[%] Residual activity C5” value in experiment [2] stood at 28.6 ± 0.4%. Also, the “[%] Residual activity C2” value in experiment [3] amounted to 44.8 ± 2.3%. The “[%] Residual activity C3” value in experiment [4] is given as 72.6 ± 1.7%. The “[%] Residual activity C4” value in experiment [5] came out at 3.7 ± 0.2%.

Consider `[Mg+2]` [Mg^2+], for which the “[%] Residual activity C1” value in experiment [1] was 99.8 ± 3.1%. The “[%] Residual activity C5” value in experiment [2] stood at 25.8 ± 0.9%. Besides, in experiment [3], the “[%] Residual activity C2” value was 38.7 ± 1.7%. Also, in experiment [4], the “[%] Residual activity C3” value stood at 68.8 ± 2.8%. Besides, the “[%] Residual activity C4” value in experiment [5] is given as 3.3 ± 0.2%.

For the molecule `[Ni+2]` [Ni^2+], the “[%] Residual activity C1” value in experiment [1] is 76.6 ± 5.1%. Moreover, in experiment [2], the “[%] Residual activity C5” value amounted to 5.6 ± 0.3%. Also, in experiment [3], the “[%] Residual activity C2” value is given as 23.0 ± 0.7%. The “[%] Residual activity C3” value in experiment [4] is listed as 64.8 ± 1.2%. Further, the “[%] Residual activity C4” value in experiment [5] was 38.8 ± 1.7%.

As for `CCCCCCCCCCCCOS(=O)(=O)[O-].[Na+]` [SDS, sodium dodecyl sulfate], in experiment [1], the “[%] Residual activity C1” value came out at 1.5 ± 0.2%. The “[%] Residual activity C5” value in experiment [2] is 19.9 ± 0.3%. For the same molecule, the “[%] Residual activity C2” value in experiment [3] is 21.6 ± 1.0%. The “[%] Residual activity C3” value in experiment [4] worked out at 2.4 ± 1.9%. Moreover, the “[%] Residual activity C4” value in experiment [5] turned out to be 33.2 ± 3.4%.

Turning to `[Zn+2]` [Zn^2+], in experiment [1], the “[%] Residual activity C1” value is on record as 30.5 ± 0.3%. Further, the “[%] Residual activity C5” value in experiment [2] stood at 0.6 ± 0.5%. For the same molecule, in experiment [3], the “[%] Residual activity C2” value turned out to be 2.3 ± 0.4%. The “[%] Residual activity C3” value in experiment [4] is 21.7 ± 0.1%. For the same molecule, the “[%] Residual activity C4” value in experiment [5] is given as 8.1 ± 0.7%.
